Measurements as given in patent publication US3959300A, “Novel indolobenzazepine derivatives, useful as tranquilizers” (priority 1974, dated 1976).

How the values were obtained:
Format in all cases: in vivo
[1] = tested on: taming; assay: Rhesus Monkey Taming Effects; settings: po, rhesus monkey; for minimal effective dose: Macaca mulatta, read-out: Taming (monkey) MED
Method: Results given in: mg/kg po/monkey
Rhesus Monkey Taming Effects: Compounds are administered orally to groups of six rhesus monkeys. The behavior of the animals is then evaluated by observational means. Taming effects are determined by the ability of the observer to approach and touch the monkey. Compounds with major tranquilizer activity in man can produce a state of passive tameness in the rhesus monkey wherein it can be touched without provoking any of the threatening or aggressive behavior seen in the normal animal. The MED is the minimal oral dose at which some taming effect can be observed.

[2] = tested on: amphetamine hyperactivity; assay: Mouse Anti-Amphetamine Activity (A.A.); settings: po, mouse, d-amphetamine sulfate 5 mg/kg sc 1 hour after compound, 60 minutes recording; for ED50: read-out: A.A. (mouse) ED50
Method: (§1) Results given in: mg/kg po/mouse
Mouse Anti-Amphetamine Activity: Groups of 5 mice are given d-amphetamine sulfate 5 mg/kg sc 1 hour after oral administration of graded doses of test compound. The mice are placed in photocell activity units immediately after amphetamine administration and locomotor activity is recorded for 60 minutes. The ED50 is calculated as the dose causing a 50% reduction in locomotor activity relative to the activity of the amphetamine-treated control mice. Amphetamine antagonism at non-toxic doses appears to correlate with major tranquilizer activity in man.

[3] = tested on: Conditioned Avoidance Response; assay: Mouse Conditioned Avoidance Response (C.A.R.); settings: po, mouse, tested 1, 2, and 4 hours after administration; for ED50: read-out: C.A.R. (mouse) ED50
Method: (§2) Results given in: mg/kg po/mouse mg/kg po/rat
(§3) Mouse and Rat Conditioned Avoidance Response: Mice and rats are trained to jump out of a pit onto a ledge to avoid shock when presented with a light and sound conditioned stimulus. The animals are tested 1, 2, and 4 hours after administration of the test compound. Three to 4 dose levels and groups of 4-8 animals/dose are used. The ED50 is the dose producing a block of the C.A.R. in 50% of the animals. Blocking of the C.A.R. at non-toxic doses appears to correlate with major tranquilizer activity in man.

[4] = tested on: locomotor activity; assay: Mouse Screen (decrease in locomotor activity); settings: po, mouse, lowest dose producing obvious decrease in locomotor activity; for minimal effective dose: read-out: Screen (mouse) MED
Source text: as §1
Mouse Screen: The minimal effective dose (MED) is the lowest oral dose producing an obvious decrease in locomotor activity, using observational techniques. Groups of 3 mice are given decreasing oral doses at 0.5 log intervals (300, 100, 30 . . . etc.) until no behavioral effects are evident. Decrease of locomotor activity is indicative of general central nervous system depressant activity.

[5] = tested on: Conditioned Avoidance Response; assay: Dog Conditioned Avoidance Response (C.A.R.); settings: po, dog, 1, 2, and 4 hours after administration; for ED50: Canis lupus familiaris, read-out: C.A.R. (dog) ED50
Method: Results given in: mg/kg po/dog
Dog Conditioned Avoidance Response: Dogs are trained to raise a forelimb when presented with a conditioned stimulus (light) in order to avoid an electric shock. Blocks of 10 trials are given to groups of four dogs during a pretreatment period and at 1, 2, and 4 hours after oral administration of test compound. The ED50 values are calculated as the dose causing 50% of the animals to show five or more incorrect responses. Blocking of the C.A.R. at non-toxic doses appears to correlate with major tranquilizer activity in man.

[6] = tested on: Conditioned Avoidance Response; assay: Rat Conditioned Avoidance Response (C.A.R.); settings: po, rat, tested 1, 2, and 4 hours after administration; for ED50: read-out: C.A.R. (rat) ED50
Method: as §2, §3

[7] = tested on: approach-avoidance ("conflict") situation; assay: Rat Conflict (Approach-Avoidance) Test; settings: for Conflict (rat) MED / minimal effective dose: po, reexposed after 1 or 2 hours, rat; for minimal effective dose: read-out: Conflict (rat) MED
Method: Results given in: mg/kg po/rat
Rat Conflict (Approach-Avoidance) Test: Food deprived rats are trained to pass from one compartment to an adjacent one to obtain food. The training consists of three exposures to the test situation on day one of the experiment. The rats are given limited (1-2 hr) free access to food in their home cages on day one and are then food deprived for at least 18 hours. On day two of the experiment, the rats are given a control exposure to the test situation followed by a second exposure after 1/2 to 1 hour in which they are shocked after crossing and eating. Groups of 6-8 rats are then dosed orally with solvent or test compound and then reexposed to the test situation after 1 or 2 hours.
This effect is dose-related (and the MED is the minimum dose at which this effect is obtained); rats dosed with solvent only consistently show a high level of fear as evidenced by decreased mobility and absence of feeding when placed in the test situation after receiving a shock.

Compound	Taming (monkey) MED [1]	A.A. (mouse) ED50 [2]	C.A.R. (mouse) ED50 [3]	Screen (mouse) MED [4]	Conflict (rat) MED [7]	also measured
1,2,3,4,8,9-hexahydro-3-[(4-methylbicyclo[2.2.2]oct-1-yl)methyl]pyrido[4',3':2,3]indolo[1,7-ab][1]benzazepine hydrochloride [Example 15]	> 10 mg/kg	3 to 10 mg/kg	10 to 30 mg/kg	10 to 30 mg/kg	–	–
1,2,3,4,8,9-hexahydro-3-[(4-methylbicyclo[2.2.2]oct-2-en-1-yl)methyl]pyrido[4', 3':2,3]indolo[1,7-ab][1]benzazepine hydrochloride [Example 16]	20 mg/kg	60 mg/kg	30 to 60 mg/kg	100 to 300 mg/kg	10 to 20 mg/kg	C.A.R. (dog) ED50 [5]: > 10 mg/kg; C.A.R. (rat) ED50 [6]: 30 mg/kg
1,2,3,4,8,9-hexahydro-3-[(trans-2-methylcyclopropyl)methyl]pyrido[4',3':2,3]indolo[1,7-ab][1]benzazepine hydrochloride [No. 4]	3 to 10 mg/kg	6 mg/kg	20 mg/kg	10 to 30 mg/kg	> 40 mg/kg	–
1,2,3,4,8,9-hexahydropyrido[4', 3':2,3] indolo[1,7-ab][1]benzazepine [Example 1]	20 to 30 mg/kg	10 mg/kg	> 40 mg/kg	10 to 30 mg/kg	> 40 mg/kg	C.A.R. (rat) ED50 [6]: > 40 mg/kg
3-(1-adamantylmethyl)-1,2,3,4,8,9-hexahydropyrido[4',3':2,3]indolo[1,7-ab][1]benzazepine hydrochloride [No. 11]	1 to 3 mg/kg	1 mg/kg	1 to 3 mg/kg	3 to 10 mg/kg	> 40 mg/kg	C.A.R. (rat) ED50 [6]: 6 mg/kg
3-(1-cyclopropylethyl)-1,2,3,4,8,9-hexahydropyrido[4',3':2,3]indolo[1,7-ab][1]benzazepine hydrochloride [Example 20]	–	–	–	30 to 100 mg/kg	–	–
3-(2-adamantylmethyl)-1,2,3,4,8,9-hexahydropyrido[4',3':2,3]indolo[1,7-ab][1]benzazepine hydrochloride [Example 11]	–	> 100 mg/kg	30 mg/kg	100 to 300 mg/kg	–	C.A.R. (rat) ED50 [6]: > 40 mg/kg
3-(2-butynyl)-1,2,3,4,8,9-hexahydropyrido[4',3':2,3]indolo[1,7-ab][1]benzazepine hydrochloride [No. 20]	1 to 3 mg/kg	6 mg/kg	10 to 30 mg/kg	10 to 30 mg/kg	> 40 mg/kg	C.A.R. (dog) ED50 [5]: > 40 mg/kg
3-(exo-7-norcarylmethyl)-1,2,3,4,8,9-hexahydropyrido[4',3':2,3]indolo[1,7- ab][1]benzazepine hydrochloride [No. 10]	10 mg/kg	3 to 10 mg/kg	10 to 30 mg/kg	10 to 30 mg/kg	–	–
3-[(2,3-dimethyl-2-cyclopropen-1-yl)methyl]-1,2,3,4,8,9-hexahydropyrido[4',3':2,3]indolo[1,7-ab][1]benzazepine hydrochloride [No. 12]	–	–	–	10 to 30 mg/kg	–	–
3-[(3-cyclohexen-1-yl)methyl]-1,2,3,4,8,9-hexahydropyrido[4',3':2,3]indolo[1,7-ab][1]benzazepine hydrochloride [No. 9]	–	5 mg/kg	–	3 to 10 mg/kg	–	–
3-[(cis,cis-2,3-dimethylcyclopropyl)methyl]-1,2,3,4,8,9-hexahydropyrido[4',3':2,3]indolo[1,7-ab][1]benzazepine hydrochloride [No. 14]	> 20 mg/kg	20 mg/kg	20 mg/kg	10 to 30 mg/kg	–	–
3-[cis-1,6-dimethyl-endo-3-norcaren-7-yl)methyl]-1,2,3,4,8,9-hexahydropyrido[4',3':2,3]indolo[1,7-ab][1]benzazepine [No. 13]	–	–	–	1 to 3 mg/kg	–	–
3-isobutyl-1,2,3,4,8,9-hexahydropyrido-[4', 3':2,3]indolo[1,7-ab ][1]benzazepine hydrochloride [No. 1, reference compound]	> 20 mg/kg	> 100 mg/kg	–	100 to 300 mg/kg	> 40 mg/kg	C.A.R. (rat) ED50 [6]: > 40 mg/kg
CC1(CN2CCc3c(c4cccc5c4n3-c3ccccc3CC5)C2)CC1.Cl [No. 5, 1,2,3,4,8,9-hexahydro-3-[(1-methylcyclopropyl)methyl]pyrido[4',3':2,3]indolo[1,7-ab][1]benzazepine hydrochloride]	–	–	–	–	–	ED50 [5]: 10 to 20 mg/kg; minimal effective dose [1]: 10 to 30 mg/kg; ED50 [2]: 3 to 10 mg/kg; ED50 [3]: 10 to 30 mg/kg; minimal effective dose [7]: 10 to 20 mg/kg; minimal effective dose [4]: 10 to 30 mg/kg
Cl.c1ccc2c(c1)CCc1cccc3c4c(n-2c13)CCN(CC1CCC1)C4 [No. 6, 3-(cyclobutylmethyl)-1,2,3,4,8,9-hexahydropyrido[4',3':2,3]indolo[1,7-ab][1]benzazepine hydrochloride]	–	–	–	–	–	ED50 [5]: 20 mg/kg; minimal effective dose [1]: 1 to 3 mg/kg; ED50 [2]: 20 mg/kg; ED50 [3]: 6 mg/kg; ED50 [6]: 4 mg/kg; minimal effective dose [7]: > 40 mg/kg; minimal effective dose [4]: 10 to 30 mg/kg
Cl.c1ccc2c(c1)CCc1cccc3c4c(n-2c13)CCN(CC1CCCC1)C4 [No. 7, 3-(cyclopentylmethyl)-1,2,3,4,8,9-hexahydropyrido[4',3':2,3]indolo[1,7-ab][1]benzazepine hydrochloride]	–	–	–	–	–	ED50 [5]: 6 mg/kg; minimal effective dose [1]: 1 to 3 mg/kg; ED50 [2]: 2 mg/kg; ED50 [3]: 20 mg/kg; ED50 [6]: 30 mg/kg; minimal effective dose [7]: > 40 mg/kg; minimal effective dose [4]: 3 to 10 mg/kg
Cl.c1ccc2c(c1)CCc1cccc3c4c(n-2c13)CCN(CC1CCCCC1)C4 [No. 8, 3-(cyclohexylmethyl)-1,2,3,4,8,9-hexahydropyrido[4',3':2,3]indolo[1,7-ab][1]benzazepine hydrochloride]	–	–	–	–	–	ED50 [5]: 10 mg/kg; minimal effective dose [1]: 1 to 3 mg/kg; ED50 [2]: 2 mg/kg; ED50 [3]: 20 mg/kg; ED50 [6]: 30 mg/kg; minimal effective dose [7]: > 40 mg/kg; minimal effective dose [4]: 3 to 10 mg/kg
C#CCN1CCc2c(c3cccc4c3n2-c2ccccc2CC4)C1.Cl [No. 19, 1,2,3,4,8,9-hexahydro-3-(2-propynyl)pyrido[4',3':2,3]indolo[1,7-ab][1]benzazepine hydrochloride]	–	–	–	–	–	ED50 [2]: 30 to 100 mg/kg; ED50 [3]: 20 mg/kg; minimal effective dose [4]: 10 to 30 mg/kg
CCCC(C)(COC(N)=O)COC(N)=O [meprobamate, reference compound]	–	–	–	–	–	decreased fear in the test animals, in words ([7]; rats cross to obtain food despite earlier shock, dose-related): apparent decreased fear in the test animals
